Consider two molecules from patent US11116725B2, “Nanoparticles carrying antibiotics” (UNIVERSITY OF SOUTH FLORIDA, priority 2017, dated 2021).

SMILES strings stand for the structures. In brackets after ≈: the same amount, converted by molar mass.

For data set [1], the system named is Staphylococcus aureus (ATCC 25923). As to the kind of experiment: 96-well plate broth assay, minimum inhibitory concentration (MIC). It counts as cell-based. The conditions noted are these: ATCC25923, triplicate, 37° C., 16-20 hours, concentration as N-acryloylciprofloxacin, read-out: MIC vs S. aureus (ATCC 25923). Here is the method:
(§1) Each assay was done in triplicate.
(§2) The original stock emulsion was diluted using the Trypticase Soy Broth solution to an initial concentration of 1.28 mg/ml of the N-acryloylciprofloxacin, then serial diluted with TSB to half the concentration each time. A volume of 10 μl of each emulsion dilution was added to a well in series, resulting in a final concentration run of 64 μg/ml to 0.012 μg/ml. The MIC was done in triplicates for each bacterium, with ciprofloxacin hydrochloride being used as a positive control and a blank of broth medium was used as a negative control.
(§3) Bacteria were grown overnight at 37° C. on an agar plate composed of BBL TSA II Trypticase Soy Agar (TSA) and BBL Trypticase Soy Broth (TSB) in a 1:2 ratio at 4.4% concentration. A broth solution of 2.4% TSB was inoculated using the bacteria from the agar plates, and incubated at 37° C. to reach a 0.5 McFarland standard. The bacteria were then further diluted by a factor of 1000 using a broth solution of 2.4% TSB, and 190 μl of the diluted bacterial solution was transferred by micropipette into each well.

The test system of data set [2] is Escherichia coli (K12). Described as above. It counts as cell-based. The settings on record: triplicate, 37° C., 16-20 hours, concentration as N-acryloylciprofloxacin, read-out: MIC vs E. coli (K12). Here is the method: as §1, §2, §3
Data set [3] in a line: Solubility in organic solvents. It counts as physicochemical.
Method: This method was attempted using methanol, ethanol, ethyl acetate, and dichloromethane. […] However, there was a critical issue that resulted with the polymerization procedure. Typically, organics were stirred at 75° C., then the surfactant and water were added. This would cause the dichloromethane to rapidly evaporate.

Take `O=C(O)c1cn(C2CC2)c2cc(N3CCNCC3)c(F)cc2c1=O` [Control Ciprofloxacin, ciprofloxacin]: the minimum inhibitory concentration (MIC) – broadly, the lowest concentration found to suppress growth – came out at 0.5 µg/mL (≈ 1.51 µM) in data set [1] and 0.012 µg/mL (≈ 0.0362 µM) in data set [2].
For the molecule `C=CC(=O)N1CCN(c2cc3c(cc2F)c(=O)c(C(=O)O)cn3C2CC2)CC1` [N-acryloylciprofloxacin], the solubility in dichloromethane result in data set [3] is “Up to 500 mg/ml”.
